In patent US12195427B2, “MASP-2 inhibitors and methods of use” (priority 2018, dated 2025):

Legend:
[1] = target: MASP-2 (CCP1-CCP2-SP) (Homo sapiens (Human), UniProt O00187); assay: Enzymatic Assay for MASP-2 (fluorogenic substrate); format: biochemical
[2] = target: human α-thrombin (Homo sapiens (Human), UniProt P00734); assay: Enzymatic Assay for Thrombin (Boc-VPR-AMC); format: biochemical
[3] = target: MASP-2 CCP2-SP (Homo sapiens (Human), UniProt O00187); assay: MASP-2 co-crystallization, X-ray crystallography and structure analysis (H-bonds, van der Waals contacts); set-up: van der Waals contact distance, MASP-2 HIS 483 atom CD2 / van der Waals contact distance, MASP-2 HIS 483 atom NE2 / van der Waals contact distance, SER 654 C to compound atom / van der Waals contact distance, SER 654 O to compound atom / van der Waals contact distance, TRP 655 C to compound atom / van der Waals contact distance, MASP-2 GLY 528 atom CA / van der Waals contact distance TRP 655 atom CZ3 / van der Waals contact distance TRP 655 atom N / van der Waals contact distance TRP 655 atom CE3 / van der Waals contact distance GLY 656 atom C / van der Waals contact distance GLY 656 atom CA / van der Waals contact distance GLY 656 atom O / van der Waals contact distance, MASP-2 TYR 607 atom CD1 / van der Waals contact distance, MASP-2 PRO 606 atom O / d(C3,CA1) / d(CA1,N1)2 / d(H4,O1) / d(H4,O2) / d(O1,O2) / d(CA1,O2) / d(CA6,O1) / d(CA6,O2) / d(CA1,C5) / d(O2,H3) / d(N2,C2) / d(CA5,N2) / d(N2,C4) / d(N2,C6) / d(N2,CA3) / d(N2,O3) / d(O4,H2): unit not given beside the values; details: for H-bond distance to MASP-2 GLY 656 atom N: GLY 656 N; for H-bond distance to MASP-2 SER 654 atom O: SER 654 O; for H-bond distance to MASP-2 SER 657 atom O: SER 657 O; for van der Waals contact distance, MASP-2 HIS 483 atom CD2: Table A2-1; for van der Waals contact distance GLY 656 atom C: MASP-2 GLY 656 C; for van der Waals contact distance TRP 655 atom CZ3: MASP-2 TRP 655 CZ3; for van der Waals contact distance TRP 655 atom N: MASP-2 TRP 655 N; for van der Waals contact distance SER 657 atom C: Table A2-14, MASP-2 SER 657 C, columns c12-c13 (inferred); for Ligand-pharmacophore element distance, pharmacophore element C2 / Ligand-pharmacophore element distance, pharmacophore element C3 / Ligand-pharmacophore element distance, pharmacophore element C4 / Ligand-pharmacophore element distance, pharmacophore element C5 / Ligand-pharmacophore element distance, pharmacophore element C6 / Ligand-pharmacophore element distance, pharmacophore element C7 / Ligand-pharmacophore element distance, pharmacophore element CA1 / Ligand-pharmacophore element distance, pharmacophore element CA2 / Ligand-pharmacophore element distance, pharmacophore element CA3 / Ligand-pharmacophore element distance, pharmacophore element CA4 / Ligand-pharmacophore element distance, pharmacophore element CA5 / Ligand-pharmacophore element distance, pharmacophore element CA6: Table A4-1; for d(CA1,N1) / d(CA1,O1) / d(CA1,O2) / d(H4,O1) / d(H4,O2) / d(O1,O2): Table A5-1 pharmacophore: distance between elements, S2/S1 region; for a(CA1, O1, O2) / a(O1, O2, H4) / A(N1, CA1, O1) a): Table A6-1 pharmacophore angle; for A(N1, CA1, O1) a): all compounds with protonatable center N1 except Methyl-amino-pyridine; for Pharmacophore torsion angle a(H4, O1, O2, H3) / Pharmacophore torsion angle a(H4, O1, O2, N2) / Pharmacophore torsion angle a(N1, CA1, O2, H4) / Pharmacophore torsion angle a(O1, H4, O2, CA1): Table A7-1; for Pharmacophore protein distance to MET_658 (first MET_658 column) / Pharmacophore protein distance to MET_658 (second MET_658 column) / Pharmacophore protein distance to GLY_528 / Pharmacophore protein distance to PHE_529 / Pharmacophore protein distance to PRO_608 / Pharmacophore protein distance to SER_611 / Pharmacophore protein distance to TRP_655: Table A8-6, nearest protein atom in cell to the left; for Pharmacophore protein distance to MET_658 (first MET_658 column): 6th residue column; for Pharmacophore protein distance to MET_658 (second MET_658 column): 9th residue column; for Pharmacophore protein distance to TRP_655: pharmacophore elements C6, CA3, O3, H1;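 for Ligand-pharmacophore element distance, pharmacophore element C2: distance from averaged pharmacophore element to bound ligand; missing value means element absent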;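 for Ligand-pharmacophore element distance, pharmacophore element C3: distance from averaged pharmacophore element to bound ligand; missing value means element absent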;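 for Ligand-pharmacophore element distance, pharmacophore element C4: distance from averaged pharmacophore element to bound ligand; missing value means element absent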;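 for Ligand-pharmacophore element distance, pharmacophore element C5: distance from averaged pharmacophore element to bound ligand; missing value means element absent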
Summary of the method: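 Contacts and H-bonds come from partially refined soaked-crystal structures of recombinant human CCP2-SP made in E. coli, solved by molecular replacement against 1Q3X fragments. Where several ligand poses appeared, only one was analysed; listed nonbonded contacts may include possible H-bond pairings.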

[4] = Table A5-2 pharmacophore distance, S3/S4 region
[5] = between pharmacophore elements of the bound compound
[6] = Table A7-2, between pharmacophore elements of the bound compound

MASP-2 CCP2-SP, sequence (O00187 445-686): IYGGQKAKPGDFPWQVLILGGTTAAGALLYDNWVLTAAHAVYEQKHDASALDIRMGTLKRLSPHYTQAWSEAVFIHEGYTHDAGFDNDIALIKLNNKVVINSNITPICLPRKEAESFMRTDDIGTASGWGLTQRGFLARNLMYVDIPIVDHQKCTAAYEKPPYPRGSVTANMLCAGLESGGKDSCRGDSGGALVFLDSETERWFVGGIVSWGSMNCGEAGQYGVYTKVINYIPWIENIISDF
MASP-2 CCP2-SP, sequence (O00187 364-432 partner): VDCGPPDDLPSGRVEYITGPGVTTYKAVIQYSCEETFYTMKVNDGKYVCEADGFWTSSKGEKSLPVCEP
MASP-2 (CCP1-CCP2-SP), sequence (O00187 445-686): as the sequence (O00187 445-686) above

## C[C@H](NC(=O)[C@H](N)CCc1ccccc1)C(=O)NCc1ccc(C(=N)N)cc1 [compound 1024]
[1]
  Ki: < 0.5 µM
[2]
  Ki: < 0.5 µM
[3]; Table A1 (H-Bonds), ASP 627 OD1
  H-bond distance to MASP-2 ASP 627 atom OD1: 2.74
[3]; Table A1 (H-Bonds)
  H-bond distance to MASP-2 GLY 656 atom N: 3.06
  H-bond distance to MASP-2 SER 654 atom O: 2.86
  H-bond distance to MASP-2 SER 657 atom O: 2.94
[3]; Table A1 (H-Bonds), SER 628 O
  H-bond distance to MASP-2 SER 628 atom O: 2.79
[3]
  van der Waals contact distance, MASP-2 HIS 483 atom CD2: 3.39
  van der Waals contact distance SER 657 atom C: 3.77
  Ligand-pharmacophore element distance, pharmacophore element C2: 0
  Ligand-pharmacophore element distance, pharmacophore element C3: 0
  Ligand-pharmacophore element distance, pharmacophore element C4: 0
  Ligand-pharmacophore element distance, pharmacophore element C5: 0
  Ligand-pharmacophore element distance, pharmacophore element C6: 0
  Ligand-pharmacophore element distance, pharmacophore element C7: 0
  Ligand-pharmacophore element distance, pharmacophore element CA1: 0.4
  Ligand-pharmacophore element distance, pharmacophore element CA2: 0.33
  Ligand-pharmacophore element distance, pharmacophore element CA3: 0
  Ligand-pharmacophore element distance, pharmacophore element CA4: 0
  Ligand-pharmacophore element distance, pharmacophore element CA5: 0
  Ligand-pharmacophore element distance, pharmacophore element CA6: 0
  d(CA1,N1): 3.55
  d(CA1,O1): 4.37
  d(CA1,O2): 4.23
  d(H4,O1): 3.99
  d(H4,O2): 3.27
  d(O1,O2): 3.23
  a(CA1, O1, O2): 109.78
  a(O1, O2, H4): 128.26
  A(N1, CA1, O1) a): 163.32
  Pharmacophore protein distance to MET_658 (first MET_658 column): 1.94
  Pharmacophore protein distance to MET_658 (second MET_658 column): 3.26
  Pharmacophore protein distance to GLY_528: 3.60
  Pharmacophore protein distance to PHE_529: 3.20
  Pharmacophore protein distance to PRO_608: 3.95
  Pharmacophore protein distance to SER_611: 2.54
  Pharmacophore protein distance to TRP_655: 3.53
[3]; Table A2-4
  van der Waals contact distance, MASP-2 TYR 607 atom CD1: 3.9
[3]; Table A2-7 continued: CYS 629 (CA)
  van der Waals contact distance, MASP-2 amino acid atom to compound atom: 3.75
[3]; Table A2-13
  van der Waals contact distance GLY 656 atom C: 3.53
  van der Waals contact distance TRP 655 atom CZ3: 3.86
  van der Waals contact distance TRP 655 atom N: 3.78
[3]; Table A2-13, MASP-2 TRP 655 O
  van der Waals contact distance TRP 655 atom O: 3.59
[3]; Table A4-2, element H1
  Ligand-pharmacophore element distance, pharmacophore element H1: 0
[3]; Table A4-2, element H2
  Ligand-pharmacophore element distance, pharmacophore element H2: 0
[3]; Table A4-2, element H3
  Ligand-pharmacophore element distance, pharmacophore element H3: 4.93
[3]; Table A4-2, element H4
  Ligand-pharmacophore element distance, pharmacophore element H4: 3.21
[3]; Table A4-2, element N1
  Ligand-pharmacophore element distance, pharmacophore element N1: 1.74
[3]; Table A4-2, element N2
  Ligand-pharmacophore element distance, pharmacophore element N2: 0.59
[3]; Table A4-2, element O1
  Ligand-pharmacophore element distance, pharmacophore element O1: 0.4
[3]; Table A4-2, element O2
  Ligand-pharmacophore element distance, pharmacophore element O2: 0.4
[3]; Table A4-2, element O3
  Ligand-pharmacophore element distance, pharmacophore element O3: 0
[3]; Table A4-2, element O4
  Ligand-pharmacophore element distance, pharmacophore element O4: 0
[3]; [4]
  d(N2,CA2): 6.19
  d(O2,H3): 5.45
  d(O2,N2): 2.78
[3]; Table A6-2 pharmacophore angle
  a(O1, O2, H3): 151.79
  a(O1, O2, N2): 136.56
  a(O2, N2, CA2): 154.55
[3]; [5]
  Pharmacophore torsion angle a(H4, O1, O2, H3): 44.69
  Pharmacophore torsion angle a(H4, O1, O2, N2): 125.09
  Pharmacophore torsion angle a(N1, CA1, O2, H4): −97.21
  Pharmacophore torsion angle a(O1, H4, O2, CA1): −63.40
[3]; [6]
  Pharmacophore torsion angle a(O1, O2, N2, CA2): 139.71

## C[C@H](NC(=O)[C@H](N)CCc1cc(Cl)cc(Cl)c1)C(=O)NCc1ccc(C(=N)N)cc1 [compound 1118]
[1]
  Ki: < 0.5 µM
[2]
  Ki: < 0.5 µM
[3]; Table A1 (H-Bonds)
  H-bond distance to MASP-2 GLY 656 atom N: 3.07
  H-bond distance to MASP-2 SER 654 atom O: 2.88
  H-bond distance to MASP-2 SER 657 atom O: 2.93
[3]; Table A1 (H-Bonds), GLY 656 O
  H-bond distance to MASP-2 GLY 656 atom O: 2.77
[3]; Table A1 (H-Bonds), SER 628 OG
  H-bond distance to MASP-2 SER 628 atom OG: 3.18
[3]
  van der Waals contact distance, MASP-2 HIS 483 atom CD2: 3.64
  van der Waals contact distance SER 657 atom C: 3.8
  Ligand-pharmacophore element distance, pharmacophore element C2: 0
  Ligand-pharmacophore element distance, pharmacophore element C3: 0
  Ligand-pharmacophore element distance, pharmacophore element C4: 2.54
  Ligand-pharmacophore element distance, pharmacophore element C5: 0
  Ligand-pharmacophore element distance, pharmacophore element C6: 1.17
  Ligand-pharmacophore element distance, pharmacophore element C7: 0
  Ligand-pharmacophore element distance, pharmacophore element CA1: 0.43
  Ligand-pharmacophore element distance, pharmacophore element CA2: 0.69
  Ligand-pharmacophore element distance, pharmacophore element CA3: 0
  Ligand-pharmacophore element distance, pharmacophore element CA4: 0
  Ligand-pharmacophore element distance, pharmacophore element CA5: 0
  Ligand-pharmacophore element distance, pharmacophore element CA6: 0
  d(CA1,N1): 3.55
  d(CA1,O1): 4.35
  d(CA1,O2): 4.33
  d(H4,O1): 4.85
  d(H4,O2): 4.52
  d(O1,O2): 3.25
  a(CA1, O1, O2): 111.55
  a(O1, O2, H4): 139.63
  A(N1, CA1, O1) a): 162.73
  Pharmacophore protein distance to MET_658 (first MET_658 column): 1.45
  Pharmacophore protein distance to MET_658 (second MET_658 column): 3.28
  Pharmacophore protein distance to GLY_528: 3.82
  Pharmacophore protein distance to PHE_529: 3.01
  Pharmacophore protein distance to PRO_608: 4.83
  Pharmacophore protein distance to SER_611: 3.12
  Pharmacophore protein distance to TRP_655: 3.71
[3]; Table A2-3
  van der Waals contact distance, MASP-2 PHE 529 atom CD1: 3.52
[3]; Table A2-4
  van der Waals contact distance, MASP-2 TYR 607 atom CA: 3.79
[3]; Table A2-9, ARG 630, AA atoms CG, CZ
  van der Waals contact distance, MASP-2 amino acid atom to compound atom: 3.85
[3]; Table A2-9 second part, ARG 630, AA atoms N, NE, NH1
  van der Waals contact distance, MASP-2 amino acid atom to compound atom: 3.67
[3]; Table A2-11
  van der Waals contact distance, VAL 653 CG1 to compound atom: 3.86
[3]; Table A2-13
  van der Waals contact distance GLY 656 atom C: 3.63
  van der Waals contact distance TRP 655 atom CZ3: 3.69
  van der Waals contact distance TRP 655 atom N: 3.76
[3]; [4]
  d(N2,C4): 7.40
  d(N2,C4)4: 7.40
  d(N2,C6): 8.27
  d(N2,CA2): 5.84
  d(O2,H3): 5.85
  d(O2,N2): 2.67
[3]; Table A6-2 pharmacophore angle
  a(O1, O2, H3): 152.79
  a(O1, O2, N2): 137.47
  a(O2, N2, C4): 162.84
  a(O2, N2, C4) 2: 125.21
  a(O2, N2, C6): 88.59
  a(O2, N2, CA2): 154.60
[3]; [5]
  Pharmacophore torsion angle a(H4, O1, O2, H3): 38.74
  Pharmacophore torsion angle a(H4, O1, O2, N2): 128.20
  Pharmacophore torsion angle a(N1, CA1, O2, H4): −132.91
  Pharmacophore torsion angle a(O1, H4, O2, CA1): −65.17
[3]; [6]
  Pharmacophore torsion angle a(O1, O2, N2, C6): 150.07
  Pharmacophore torsion angle a(O1, O2, N2, CA2): 145.00
